From ChEMBL document CHEMBL4028815, “Novel phosphonate analogs of sulforaphane: Synthesis, in vitro and in vivo anticancer activity” (Eur J Med Chem, 2017)

Experiments:
[1] = Cytotoxicity against human LoVo/DX cells after 72 hrs by sulforhodamine B assay; format: functional, cell-based
[2] = test system: LoVo; experiment: Cytotoxicity against human LoVo cells after 72 hrs by sulforhodamine B assay; format: functional, cell-based
[3] = test system: LoVo; experiment: Potency index, ratio of sulforaphane IC50 to compound IC50 for human LoVo cells; format: functional
[4] = test system: LoVo; experiment: Potency index, ratio of benzyl isothiocyanate IC50 to compound IC50 for human LoVo cells; format: functional
[5] = test system: MES-SA/Dx5; experiment: Cytotoxicity against human MESSA/DX5 cells after 72 hrs by sulforhodamine B assay; format: functional, cell-based; conditions: MES-SA/Dx5, 72 h
[6] = test system: MES-SA; experiment: Cytotoxicity against human MESSA cells after 72 hrs by sulforhodamine B assay; format: functional, cell-based
[7] = Resistance index, ratio of IC50 for human MESSA/DX5 cells to IC50 for human MESSA cells; format: functional
[8] = test system: HL60/MX2; experiment: Cytotoxicity against human HL60/MX2 cells after 72 hrs by sulforhodamine B assay; format: functional, cell-based; conditions: HL60/MX2, 72 h
[9] = Resistance index, ratio of IC50 for human HL60/MX2 cells to IC50 for human HL60 cells; format: functional
[10] = test system: HL-60; experiment: Cytotoxicity against human HL60 cells after 72 hrs by sulforhodamine B assay; format: functional, cell-based; conditions: HL-60, 72 h

Structure (SMILES) | IC50 [1] [µM] | IC50 [2] [µM] | further results
COP(=O)(CCCCN=C=S)OC | 6.5 | 5.4 | –
CC(C)COP(=O)(CCCCCN=C=S)OCC(C)C | 5.1 | 2.4 | Ratio IC50 [3]: 10; Ratio IC50 [4]: 5
COP(=O)(CCCCCN=C=S)OC | 9.4 | 5 | –
O=P(CCCCCN=C=S)(OCc1ccccc1)OCc1ccccc1 | 8.5 | 3.5 | –
C#CCOP(=O)(CCCCN=C=S)OCC#C | 11.3 | 3.2 | –
COc1cccc2c1C(=O)c1c(O)c3c(c(O)c1C2=O)C[C@@](O)(C(=O)CO)C[C@@H]3O[C@H]1C[C@H](N)[C@H](O)[C@H](C)O1 [DOXORUBICIN] | 12.2 | 0.3 | IC50 [5]: 13.9 µM; IC50 [6]: 0.1 µM; Ratio IC50 [7]: 100
CCOP(=O)(CCCCN=C=S)OCC | 10.2 | 4.6 | –
CC(C)COP(=O)(CCCN=C=S)OCC(C)C | 5.6 | 2.4 | Ratio IC50 [3]: 10; Ratio IC50 [4]: 5
O=P(CCN=C=S)(OCC(F)(F)F)OCC(F)(F)F | 8.2 | 5.5 | –
CCOP(=O)(CCCCCN=C=S)OCC | 3.1 | 2.8 | Ratio IC50 [3]: 10; Ratio IC50 [4]: 5
O=P(CCCCCCN=C=S)(OCc1ccccc1)OCc1ccccc1 | 9.2 | 4.6 | –
CC(C)OP(=O)(CCN=C=S)OC(C)C | 3.6 | 2.7 | Ratio IC50 [3]: 10; Ratio IC50 [4]: 5
O=P(CCCCN=C=S)(OCC1CCCO1)OCC1CCCO1 (stereo not drawn) | 7.6 | 5 | –
O=P(CCCN=C=S)(Oc1ccccc1)Oc1ccccc1 | 10.2 | 4.2 | –
CC(C)COP(=O)(CCCCN=C=S)OCC(C)C | 10.4 | 3.3 | –
CCC(C)OP(=O)(CCCCN=C=S)OC(C)CC (stereo not drawn) | 3.6 | 4.3 | –
O=P(CCCCN=C=S)(OCC(F)(F)F)OCC(F)(F)F | 5.7 | 4.9 | –
CCOP(=O)(CCCCCCCCCCN=C=S)OCC | 13.1 | 10 | –
O=P(CCN=C=S)(Oc1ccccc1)Oc1ccccc1 | 11.4 | 10.5 | –
CC(C)OP(=O)(CCCCN=C=S)OC(C)C | 5 | 2.5 | Ratio IC50 [3]: 10; Ratio IC50 [4]: 5
CC(C)(C)COP(=O)(CCCCCCN=C=S)OCC(C)(C)C | 11.2 | 7.4 | –
O=C1c2c(O)ccc(O)c2C(=O)c2c(NCCNCCO)ccc(NCCNCCO)c21 [MITOXANTRONE] | – | – | IC50 [8]: 0.148 µM; Ratio IC50 [9]: 37; IC50 [10]: 0.004 µM
